We go through 8 compounds from paper PMC8467567, “Selective Targeting of Human and Animal Pathogens of the Helicobacter Genus by Flavodoxin Inhibitors: Efficacy, Synergy, Resistance and Mechanistic Studies” (International Journal of Molecular Sciences, 2021).

The target in assay [1] is T1, Hp-Fld (H. pylori flavodoxin) (Helicobacter pylori, UniProt O25776).
T1 construct: gene fldA; recombinant from pET28a-fldA in E. coli BL21 (DE3); DEAE purification, no tag mentioned; FMN added during lysis, transformed into holoprotein if needed
T1 sequence (O25776 1-164): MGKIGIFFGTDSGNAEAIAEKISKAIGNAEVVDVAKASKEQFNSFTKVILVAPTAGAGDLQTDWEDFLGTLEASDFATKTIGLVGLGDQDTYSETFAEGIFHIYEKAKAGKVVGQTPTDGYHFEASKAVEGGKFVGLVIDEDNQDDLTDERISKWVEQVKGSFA
The assay can be described thus: biochemical. The arrangement: isothermal titration calorimetry of compounds binding to recombinant wild-type Hp-Fld, pH 9. Here is the method: Isothermal titration calorimetry (ITC) experiments were carried out in an Auto-iTC200 calorimeter (MicroCal, Malvern-Panalytical, Malvern, UK) in order to characterise the affinity of the wild-type Hp-Fld protein and the different mutants N14A, A55W, V113W, Q115W, T116W, K133A and D142Y for the different compounds. Recombinant Hp-Fld at 10–20 µM concentration in 50 mM EPPS buffer, pH 9 (for IV, IV-a, IV-b, IV-c, rac-IV-j, rac-IV-k and rac-IV-l), or in 50 mM Tris-HCl buffer, pH 9 (for IV-d) was titrated with 120–300 µM ligand solutions in the same buffer, prepared from stock compound solutions in 100% DMSO. At the residual DMSO concentration of 2.5% employed in the working solutions, wild-type flavodoxin has been described to be conformationally stable and biochemically active. Thermodynamic parameters of the binding equilibrium were calculated by non-linear least-squares regression analysis considering a single ligand binding site and using the user-defined fitting routines in the MicroCal LLC ITC module from the Origin 7.0 software (Northampton, MA, USA). Interaction between wild-type Hp-Fld and compounds IV, IV-a, IV-b, IV-c, IV-d, rac-IV-j, rac-IV-k and rac-IV-l was evaluated by ITC (Figure S3 and Table S1).

In assay [2] the target is T2, Hp-Fld (H. pylori flavodoxin) (Helicobacter pylori, UniProt O25776, T116W).
T2 construct: gene fldA
Put plainly: biochemical. The text has this: (§1) isothermal titration calorimetry on Hp-Fld (H. pylori flavodoxin)

Assay [3] addresses T3, Hp-Fld (H. pylori flavodoxin) (Helicobacter pylori, UniProt O25776, V113W).
T3 construct: gene fldA
The assay can be described thus: biochemical.
Excerpt: as §1

Assay [4] deals with T4, Hp-Fld (H. pylori flavodoxin) (Helicobacter pylori, UniProt O25776, D142Y).
T4 construct: gene fldA
The assay can be described thus: biochemical.
Excerpt: as §1

Assay [5] has as its target T5, Hp-Fld (H. pylori flavodoxin) (Helicobacter pylori, UniProt O25776, N14A).
T5 construct: gene fldA
The assay can be described thus: biochemical.
Excerpt: as §1

In assay [6] the target is T6, Hp-Fld (H. pylori flavodoxin) (Helicobacter pylori, UniProt O25776, A55W).
T6 construct: gene fldA
Put plainly: biochemical.
Excerpt: as §1

Assay [7] addresses T1, Hp-Fld (H. pylori flavodoxin). Put plainly: isothermal titration calorimetry. The class given is binding.

As for `O=[N+]([O-])c1ccc(SCc2ccc(OCC(O)CO)cc2)c2nonc12` (racemic) [rac-IV-j, rac-3-(4-(((7-Nitrobenzo[c][1,2,5]oxadiazol-4-yl)thio)methyl)phenoxy)propane-1,2-diol], the Kd in assay [1] is 2330 nM.
In the case of `Nc1ccc(SCc2ccc(OCC(O)CO)cc2)c2nonc12` (racemic) [rac-IV-k, rac-3-(4-(((7-Aminobenzo[c][1,2,5]oxadiazol-4-yl)thio)methyl)phenoxy)propane-1,2-diol], the Kd in assay [1] was found to be 3360 nM.
As to `Nc1ccc([S+]([O-])Cc2ccc(OCC(O)CO)cc2)c2nonc12` (racemic) [rac-IV-l, rac-3-(4-(((7-Aminobenzo[c][1,2,5]oxadiazol-4-yl)sulfinyl)methyl)phenoxy)propane-1,2-diol], in assay [1], the Kd was 1650 nM.
In the case of `COc1ccc(CSc2ccc(N)c3nonc23)cc1` [IV-a], in assay [1], the Kd was determined as 5260 nM.
For the compound `COc1ccc(C2(C)SCc3cc(C)c(C)cc3CS2)cc1` [IV-b], in assay [1], the Kd amounted to 910 nM.
Consider `COc1ccc(CSc2cc(Cl)c(N)c3nonc23)cc1` [IV-c], for which the Kd came to 1430 nM in assay [2]; 1450 nM in assay [3]; 440 nM in assay [4]; 1760 nM in assay [5]; 1050 nM in assay [6]; 670 nM in assay [7] (read-out: IV-c / Kd^b).
On to `COc1ccc(C[S+]([O-])c2ccc(N)c3nonc23)cc1` (stereo not drawn) [IV-d], for which the Kd in assay [1] is 1550 nM.
Take `COc1ccc(CSc2ccc([N+](=O)[O-])c3nonc23)cc1` [IV]: the Kd in assay [2] worked out at 1100 nM; in assay [3], 500 nM; in assay [4], 1180 nM; in assay [5] it was 450 nM; in assay [6], 2330 nM; in assay [7] (read-out: IV / Kd^b), 480 nM.
